Source: the RepoRT retention time repository

assay: Agilent ZORBAX 300 SB-C18, 150 × 1 mm, 3.5 µm; A: water + 0.01% heptafluorobutyric acid; B: acetonitrile + 0.01% heptafluorobutyric acid; gradient (min/%B) 0/0 100/90; conditions: stereoisomer not certain

Row | SMILES | LC retention time
1 | S=C1NC2(CCCCC2)NN1c1ccccc1 | 13.2 min
2 | CC1=NC(=Cc2ccccc2)C(=O)O1 | 9.16 min
3 | c1cc(-c2nn[nH]n2)cc(-n2cccn2)c1 | 9.34 min
4 | S=C(NCCc1c[nH]c2ccccc12)Nc1ccccc1 | 13.2 min
5 | CCc1ccc(N2CC(C(=O)Nc3ccc(N(C)C)cc3)CC2=O)cc1 (stereo not drawn) | 10.4 min
6 | O=C1CCCN1CCc1ccccn1 | 6.77 min
7 | Cc1ccc2cc(-c3ccncc3)[nH]c2c1 | 10.2 min
8 | Cn1c(=O)cc(O)c2ccccc21 | 9.12 min
9 | NCC(=O)c1ccccc1 | 7.35 min
10 | CCN(CC)c1ccc(C(=O)NC(c2ccccc2)c2ccccc2)cc1 | 15.8 min
11 | c1coc(-c2c3c(nc4ccc5ccccc5c24)CCCC3)c1 | 13.8 min
12 | Cc1[nH]c2c(c1C)C(=O)CCC2 | 8.94 min
13 | CCCCN(CC)CC | 7.73 min
14 | CSc1nnc(C)c(C)n1 | 8.89 min
15 | COC(=O)CCC1CCCNC1 (stereo not drawn) | 7.49 min
16 | Cc1[nH]c2ccccc2c1C=NNC(N)=S | 9.71 min
17 | CCCCNC(=O)NCCCC | 10.5 min
18 | c1ccc(N2CCN(c3ccccc3)C2c2cccnc2)cc1 | 13 min
19 | O=C(O)CC(C(=O)O)c1c[nH]c2ccccc12 (stereo not drawn) | 8.46 min
20 | CN(C)C=CC(=O)c1ccc2ccccc2c1 | 12.2 min
21 | C=CCN(C)CC=C | 6.98 min
22 | O=c1[nH]c(N=NCc2ccccc2O)nnc1Cc1ccccc1 | 11.4 min
23 | Oc1ccc2cccc(-n3cccc3)c2c1 | 14.1 min

Row | SMILES | LC retention time
24 | c1cc(CCCc2ccncc2)ccn1 | 7.37 min
25 | Nc1cccc(N)c1 | 5.85 min
26 | O=c1cc(O)c2ccccc2[nH]1 | 8.44 min
27 | COc1ccc(N=Nc2c(N)n[nH]c2N)cc1 | 9.61 min
28 | S=C1NCN(C2CCCCC2)CN1 | 8.07 min
29 | O=C1CCNC2CCCCC12 (stereo not drawn) | 6.79 min
30 | c1ccc2c(c1)[nH]c1ccccc12 | 14.6 min
31 | CCCCN1CNC(=S)N(c2ccccc2C)C1 | 12.6 min
32 | CCCCN1CNC(=S)NC1 | 7.45 min
33 | CCCc1cc(C(=O)O)ccn1 | 6.01 min
34 | CC(=O)Oc1ccccc1C(=O)NC(C)(C)C | 11.2 min
35 | O=c1cc(Nc2ccccc2)c2ccccc2o1 | 12.2 min
36 | O=C(NCCCCc1ccccc1)c1ccc2ccccc2n1 | 17.2 min
37 | CC1=NN(c2ccc(C)cc2)C(=O)C1C=O (stereo not drawn) | 8.94 min
38 | Cc1cc(C)c(C=CC(=O)c2cccs2)c(C)c1 | 18.2 min
39 | CCc1ccc(NCCC(=O)c2ccc(C(C)(C)C)cc2)cc1 | 16.5 min
40 | c1ccc(-c2ccnc(-c3cc(-c4ccccc4)ccn3)c2)cc1 | 14.9 min
41 | COc1c(C)cccc1C(=O)NC(CC(C)C)C(N)=O (stereo not drawn) | 11.2 min
42 | CCNc1ccccc1C | 8.47 min
43 | c1ccc(CCNc2ccncn2)nc1 | 7.03 min
44 | CN(C)c1ccc(C=NNC(=O)C(c2ccccc2)c2ccccc2)cc1 | 15.4 min
45 | Cc1nc(C)c(C)nc1C | 7.72 min
46 | CCn1c2ccccc2c2cc(C=Nn3c(C)cc(C)cc3=O)ccc21 | 15.9 min

Row | SMILES | LC retention time
47 | COC(=O)c1ccc(NC(=O)Nc2cccc3ccccc23)cc1 | 14.3 min
48 | c1ccc(CNCCc2csc3c2CCCC3)cc1 | 11.7 min
49 | CCSc1ccc2c(c1)N(CCCN1CCN(C)CC1)c1ccccc1S2 | 12.8 min
50 | CC(C)(C)c1ccc(-c2cc(C(=O)O)c3c(ccc4ccccc43)n2)cc1 | 16.4 min
51 | OCCNC1CCCCC1 | 7.24 min
52 | Cc1cc(C)c2c(O)c(Cc3ccccc3)c(=O)[nH]c2c1 | 12.6 min
53 | O=C(C=Cc1ccccc1)c1cc(O)ccc1O | 12.5 min
54 | CCc1ccc(C2CC(=O)N(N(C)C)C3=C2C(=O)CCC3)cc1 (stereo not drawn) | 15.1 min
55 | S=C1N=C2CCCC2C2(CCCC2)N1 (stereo not drawn) | 8.95 min
56 | O=C(Oc1cccc2cccnc12)c1ccccc1 | 13.8 min
57 | COc1ccccc1OCC(=O)N1CCNC1=O | 8.89 min
58 | Cn1c2c(c(=O)[nH]c1=O)C(c1ccccc1)C1=C(N2)c2ccccc2C1=O (stereo not drawn) | 10.6 min
59 | Cc1[nH]n(-c2ccccc2)c(=O)c1C=O | 8.21 min
60 | CC(N)CCCC(C)(C)O (stereo not drawn) | 7.64 min
61 | CCC(N)=O | 2.3 min
62 | COc1ccccc1-n1c(=O)[nH][nH]c1=O | 6.75 min
63 | CN1CCOCC1 | 3.96 min
64 | Cc1cccc(-n2c(C)nc3ccccc3c2=O)c1 | 11.9 min
65 | CN1CCCNCC1 | 6.55 min
66 | O=C1OCc2cc(-n3cccc3)ccc21 | 11.8 min
67 | CC(C)NCCO | 5.44 min
68 | CCCC(=O)C1CCNCC1 | 7.57 min
69 | CNCC(O)c1cccc(O)c1 (stereo not drawn) | 7.2 min

Row | SMILES | LC retention time
70 | CN(C)C(=N)N(C)C | 6.49 min
71 | NCCc1ccccn1 | 6.83 min
72 | CC(N)=O | 1.61 min
73 | Cn1c(C(C)(C)C)nc(N)nc1=O | 7.21 min
74 | C=CCC1(C(C)C)C(=O)NC(=O)NC1=O | 9.74 min
75 | OC1CCNCC1 | 2.8 min
76 | COC1=CC(=O)C(=O)C=C1OC | 7.13 min
77 | C[N+]1(C)CCCCC1 | 5.95 min
78 | CC(=O)Oc1ccc(C(=O)N2CCc3ccccc32)cc1 | 13.2 min
79 | NCCCCCC(=O)O | 6.81 min
80 | c1ccc(C(c2ccccc2)c2nc(-c3ccncc3)no2)cc1 | 14.9 min
81 | CC1C(=O)CCN(C(C)(C)C)C1C (stereo not drawn) | 8.44 min
82 | c1cncc(-c2nn[nH]n2)c1 | 5.35 min
83 | O=C(NCCc1c[nH]c2ccccc12)c1c[nH]c2ccccc12 | 11.8 min
84 | Nc1ccc(N2CCCC2=O)cc1N1CCCC1=O | 7.63 min
85 | Nc1nc(N)c2nc(-c3ccccc3)c(N)nc2n1 | 8.71 min
86 | N=c1c2c3c(sc2ncn1N)CCC3 | 8.21 min
87 | Nc1ccc(C(=O)N2CCC(c3ccccc3)C2)cc1 (stereo not drawn) | 11 min
88 | Cc1c(O)c(=O)ccn1C | 6.47 min
89 | C#CC(C)(CC)NC(=O)CCc1ccccc1 (stereo not drawn) | 13 min
90 | S=c1[nH]ccc2ccccc12 | 9.61 min
91 | C#Cc1cncn1C | 6.39 min
92 | CCCCn1ccnc1 | 7.5 min

Row | SMILES | LC retention time
93 | O=C1c2ccccc2C(O)(c2ccccc2)N1C(c1ccccc1)c1ccccc1 (stereo not drawn) | 16.8 min
94 | c1ccc2ncncc2c1 | 7.73 min
95 | Nc1ncnc(N2CCCc3ccccc32)n1 | 9.57 min
96 | NCCCCC(NC(CCc1ccccc1)C(=O)[O-])C(=O)N1CCCC1C(=O)O (stereo not drawn) | 8.09 min
97 | Cc1ccncc1C | 6.82 min
98 | O=C(O)C1CCCN(CCc2ccccc2)C1 (stereo not drawn) | 8.36 min
99 | CC(=O)NNc1nc(C)cc(C)n1 | 6.5 min
100 | COc1ccc(C2=C(N)C(=O)NC2=O)cc1OC | 8.69 min
101 | O=C(C=Cc1ccccc1O)c1ccc(O)cc1O | 12.2 min
102 | O=C(CN1CCc2ccccc2C1)NC1CCCC1 | 8.99 min
103 | c1cncc(N2CCN(c3cccnc3)CC2)c1 | 7.33 min
104 | CC(=CCc1ccccc1)N=Nc1nc(=S)[nH][nH]1 | 10.6 min
105 | NCCCP(=O)(O)O | 1.3 min
106 | CN(C)c1nc(N)nc(N(C)C)n1 | 8.03 min
107 | CCn1c(=O)n(CC)c2cc(C=O)ccc21 | 10.2 min
108 | Cc1[nH][nH]c(=O)c1CCC(=O)NN=Cc1c(C)[nH]c2ccccc12 | 8.93 min
109 | CC(=O)C1CCC2C3CC(C)C4=CC(=O)CCC4(C)C3C(O)CC12C (stereo not drawn) | 14.8 min
110 | CC(=O)Nc1ccc(C2=NNC(c3ccccc3)C2)cc1 (stereo not drawn) | 10.3 min
111 | CCOC(=O)c1ccc(Nc2c(N)c(=O)oc3ccccc23)cc1 | 14 min
112 | NC1C(=O)Nc2ccccc21 (stereo not drawn) | 7.8 min
113 | Cc1cccc(NC(=O)c2ccc3nccnc3c2)n1 | 9.62 min
114 | Cc1ccc(C=C2C(=O)c3ccccc3C2=O)o1 | 15.1 min
115 | Cc1ccc(C(=O)c2cccc(N)c2)cc1C | 13 min

Row | SMILES | LC retention time
116 | CCOC(=O)C=CC(=O)NCCC1=CCCCC1 | 13.8 min
117 | O=C(O)Cn1c(=O)c(-c2ccccc2)nc2ccccc21 | 11.8 min
118 | CCCCCCCCCn1cc[n+](CCCCCCCCC)c1C | 17.8 min
119 | Cc1cc(=O)cc(C)n1C | 6.83 min
120 | CC(O)CCN (stereo not drawn) | 3.82 min
121 | CCCCCC(=O)OC1(C(C)=O)CCC2C3CCC4=CC(=O)CCC4(C)C3CCC21C (stereo not drawn) | 21.2 min
122 | CCOC(=O)c1ccc(NC(=O)N2CCCC2)cc1 | 11.6 min
123 | CC(C)NCCNC(C)C | 7.16 min
124 | CC(=O)NC(Cc1c[nH]c2ccccc12)C(N)=O (stereo not drawn) | 7.8 min
125 | CCN(CC)CCCO | 6.01 min
126 | CC(C)(C)c1ccc(C(=O)NN=Cc2c[nH]c3ccccc23)cc1 | 14.2 min
127 | Nc1ccc2c(c1)COc1ccccc1O2 | 10.5 min
128 | O=C1CC(N2CCN(C(c3ccccc3)c3ccccc3)CC2)C(=O)N1c1cccc2ccccc12 (stereo not drawn) | 12.4 min
129 | O=C(NC(Cc1ccccc1)C(=O)NCc1ccco1)c1ccccc1 (stereo not drawn) | 12.8 min
130 | Oc1ccc2c3c1OC1C(O)CCC4(O)C(C2)N(CC2CCC2)CCC314 (stereo not drawn) | 8.75 min
131 | O=C1CCC2(O)C3Cc4ccc(O)c5c4C2(CCN3CC2CC2)C1O5 (stereo not drawn) | 8.38 min
132 | CC(C)c1ccc(C=NNC(=O)C[n+]2ccccc2)cc1 | 10.4 min
133 | CCCCOc1ccccc1N | 10.8 min
